Results as given in patent US12558339B2, “Composition comprising (7S)-(+)-cyclopentyl carbarmic acid, 8,8-dimethyl-2-oxo-6,7-dihydro-2H,8H-pyrano[3,2-g]chromen-7-yl-ester as active ingredient for prevention, alleviation, or treatment of eye disease” (INSPHARMTECH INC., priority 2021, dated 2026).

Columns and labels:
[1] = system: human endothelial cells (HUVECs); assay: Cell viability test (CELLTITER-GLO luminescent assay) in HUVECs; type: cell-based; settings: various concentrations, 48 hours, FIG. 1A
Experimental: ARPE-19 cells (RID: CVCL 0145) and L-Wnt3a cells (RID: CVCL 0635) were acquired from American Type Culture Collection (ATCC) and cultured in a DMEM medium supplemented with 10% fetal bovine serum (FBS), 120 μg/mL penicillin and 200 μg/mL streptomycin. Human umbilical vein endothelial cells (HUVECs, RID: CVCL 2959) were purchased from CEFO (Cell Engineering for Origin) and cultured using an optimized medium (CEFOgro-HUVEC). Wnt3a-CM (Wnt3a-conditioned medium) was prepared using L-Wnt3a cells that secrete the Wnt-3a protein into the medium. First, the cells were cultured for 4 days and the medium was recovered and replaced with a fresh medium. After culturing for 3 days, the medium was recovered. […]
HUVECs were inoculated into a 96-well plate with a transparent black bottom at 5,000 cells per well, incubated overnight, and then treated with a test substances (compound of Example (1) (CGK012) or decursin of Comparative Example (1)) at various concentrations together with a medium (total volume per well: 100 μL). After 48 hours, cell viability was measured using a CELLTITER-GLO® luminescent cell viability assay kit (Promega, G7572) according to the manufacturer's instructions. […] After mixing in an orbital shaker for 2 minutes for cell lysis, stabilization was induced at room temperature for 10 minutes, and then luminescence was measured. […]

C57BL/6J mice = assay: Organ and tissue toxicity (blood GPT, BUN; liver and kidney histology); type: in vivo
Experimental: In order to investigate the effect on the organs (tissues) of C57BL/6J mice, blood was taken from the animals of a test group to which the compound of Example (1) was administered and a control group to which only a solvent was administered 8 weeks after the administration, and blood levels of GPT (glutamate-pyruvate transferase) and BUN (blood urea nitrogen) were measured using SELECT™ E (Vital Scientific NV, Netherlands). […] In addition, the liver and kidney were taken from each animal and subjected to histological observation under an optical microscope through a conventional tissue section preparation process.

[2] = system: choroidal neovascularization (CNV)-induced rabbit model; assay: Laser-induced choroidal neovascularization (CNV) rabbit model, fluorescein angiography, retinal fluorescence intensity; type: in vivo, Chinchilla rabbit; settings: for Fluorescence intensity (% of control group): rabbit CNV, instillation 300 μg/eye 1/day, day 7 (G6, G7)
Text: After obtaining 50 male Chinchilla rabbits weighing about 2.5-3.0 kg from DREAMBIO, their health status was checked during a 7-day acclimatization period, and healthy animals were used in the test.
After the acclimatization period, 42 healthy rabbits were selected and a mydriatic agent (MIDRIACIL™ 1% eye drop) was instilled into the right eye. After anesthetizing the animals, laser (ELITE, LUMENIS, USA) was irradiated under the condition of 532 nm, power 150 mW and duration 0.1 sec, and 6 spots were made in about 6 o'clock direction around the optic nerve.
After dividing the test animals into a total of 7 groups, G1 to G7, administration of the test substance was started on the day of the CNV induction using laser with the concentrations described in Table 2. In Table 2, EYLEA™ (Aflibercept) was used as a positive control substance. For intravitreal injection, 40 μL of the positive control substance (EYLEA™) was injected intravitreally into the right eye of the animal in the anesthetized state using a syringe equipped with a 31-gauge needle on the day of the CNV induction. For instillation, after the animal was taken out of the cage and corrected naturally by an assistant, 200 μL of the test substance was instilled into the center of the cornea of the right eye by using a pipette. In the case of “a)”, the instillation was divided into 4 times and each administration was spaced by 5 minutes.
Before the administration of the test substance (0) and on 7, 14, 28, 42 and 56 days after the administration, a mydriatic agent (MIDRIACIL™ 1% eye drop) was instilled into the right of the animal. Then, after anesthetizing the animal and injecting about 1 mL of a 2% fluorescein sodium salt solution via the ear vein, images were taken within about 2 minutes using a fundus camera (TRC-50IX, Topcon, Japan).
Retinal CNV and drug efficacy were confirmed using the retinal fluorescein fundus images. The fluorescein intensity of the irradiation area was analyzed using the ImageJ software (NIH, Bethesda, MD).
For the results of this test, the significance between the test groups was tested using parametric one-way ANOVA assuming the normality of the data. When significance was recognized, a post hoc test was performed using Dunnett's multiple comparison test. Statistical analysis was performed using PRISM 7.04 (GraphPad Software Inc., San Diego, CA, USA), and p<0.05 was considered statically significant.
The test substance of the example or the comparative example was dropped onto the eye of a rabbit wherein choroidal neovascularization (CNV) was induced by laser irradiation, for 7 days, 300 μg per each administration. On day 7 after the start of the test substance administration, the eye was imaged with a fundus camera to compare the effect of the test substance on intraocular vascular leakage and the fluorescence intensity of the retina was analyzed. […] Table 3 compares the relative fluorescence intensity (% of control group) of the irradiation area determined by analyzing the retinal fluorescein angiographic images of the control group (G1), the test group (G6) and the comparison group (G7).
For a rabbit wherein choroidal neovascularization (CNV) was induced by laser irradiation, EYLEA™ was intravitreally injected as a positive control, the eye drop of the example was administered by dropping onto the eye or EYLEA™ and the eye drop of the example were co-administered. […]

[3] = system: vascular endothelial growth factor (VEGF) in human retinal pigment epithelial cells (ARPE-19 cells); assay: Western blotting of VEGF level in ARPE-19 cells; type: cell-based; settings: FIG. 1B
Experimental: ARPE-19 cells (RID: CVCL 0145) and L-Wnt3a cells (RID: CVCL 0635) were acquired from American Type Culture Collection (ATCC) and cultured in a DMEM medium supplemented with 10% fetal bovine serum (FBS), 120 μg/mL penicillin and 200 μg/mL streptomycin. Human umbilical vein endothelial cells (HUVECs, RID: CVCL 2959) were purchased from CEFO (Cell Engineering for Origin) and cultured using an optimized medium (CEFOgro-HUVEC). Wnt3a-CM (Wnt3a-conditioned medium) was prepared using L-Wnt3a cells that secrete the Wnt-3a protein into the medium. First, the cells were cultured for 4 days and the medium was recovered and replaced with a fresh medium. After culturing for 3 days, the medium was recovered. The two media were combined and used after passing through a 0.22-μm filter. All the cells were cultured in a cell incubator under the condition of 37° C. and 5% CO2.
Whole cell proteins were obtained using a RIPA buffer. After treating the cells with an appropriate amount of a RIPA buffer supplemented with 1× protease inhibitor, the cells were reacted on ice while vortexing once every 10 minutes. After centrifuging at 13,000 rpm and at 4° C. for 10 minutes and quantifying the obtained supernatant by BRADFORD™ assay, […] of proteins were separated according to molecular weight through electrophoresis. […]

ICR mice = assay: Acute toxicity, oral, fatality rate at 24 hours; type: in vivo; settings: 2.0 g/kg, n=5
Experimental: This experiment was conducted to investigate the acute (within 24 hours) toxicity of the compound of the present disclosure and determine its fatality rate when consumed in an excess amount in a short period of time. ICR mice were assigned to a control group (n=5) and a test group (n=5). Nothing was administered to the control group and the compound of Example (1) was orally administered to the test group at a concentration of 2.0 g/kg (about 50 times the amount used in general animal experiments).

[4] = G5: CGK012 administered alone, FIG. 6B, 6C

Row | Compound | cell viability of human endothelial cells (HUVECs) [1] | blood level of BUN (blood urea nitrogen) vs control group (C57BL/6J mice; 8 weeks after the administration, kidney toxicity) | blood level of GPT (glutamate-pyruvate transferase) vs control group (C57BL/6J mice; 8 weeks after the administration, liver toxicity) | histological observation of liver and kidney (C57BL/6J mice; optical microscope) | difference of retinal fluorescence intensity from the positive control EYLEA administration group (G2) [2, 4] | level of retinal fluorescence intensity as compared to the induced control group (G1) [2, 4] | relative fluorescence intensity (% of control group) ([2]; G5: CGK012 instillation 300 μg/eye 2/day, Day 7) | relative fluorescence intensity (% of control group) ([2]; G5: CGK012 instillation 300 μg/eye 2/day, Day 14) | relative fluorescence intensity (% of control group) ([2]; G5: CGK012 instillation 300 μg/eye 2/day, Day 28) | relative fluorescence intensity (% of control group) ([2]; G5: CGK012 instillation 300 μg/eye 2/day, Day 42) | relative fluorescence intensity (% of control group) ([2]; G5: CGK012 instillation 300 μg/eye 2/day, Day 56) | duration of the effect of inhibiting choroidal neovascularization ([2]; G5: single administration of CGK012 (eye drop, without EYLEA)) [weeks] | Fluorescence intensity (% of control group) [2] | level of VEGF in ARPE-19 cells [3] | fatality rate 24 hours after the administration (ICR mice) | relative fluorescence intensity (% of control group) ([2]; G2: EYLEA intravitreal 1600 μg/eye 1/3 weeks, Day 7) | relative fluorescence intensity (% of control group) ([2]; G2: EYLEA intravitreal 1600 μg/eye 1/3 weeks, Day 14) | relative fluorescence intensity (% of control group) ([2]; G2: EYLEA intravitreal 1600 μg/eye 1/3 weeks, Day 28) | relative fluorescence intensity (% of control group) ([2]; G2: EYLEA intravitreal 1600 μg/eye 1/3 weeks, Day 42) | relative fluorescence intensity (% of control group) ([2]; G2: EYLEA intravitreal 1600 μg/eye 1/3 weeks, Day 56)
1 | CC1(C)Oc2cc3oc(=O)ccc3cc2C[C@@H]1OC(=O)NC1CCCC1 [CGK012, (7S)-(+)-cyclopentylcarbarmic acid 8,8-dimethyl-2-oxo-6,7-dihydro-2H,8H-pyrano[3,2-g]chromen-7-yl-ester] | significantly inhibited the survival of the HUVECs at high concentrations | no significant difference was observed | no significant difference was observed | No unusual abnormality was observed | no statistically significant difference | significantly low | 80.877 ± 8.905 % of control group | 79.116 ± 7.972 % of control group | 79.152 ± 6.642 % of control group | 79.137 ± 6.355 % of control group | 81.041 ± 10.391 % of control group | 8 | 75.52 ± 3.93 % of control group | remarkably decreased VEGF | all the animals of the control group and the test group survived | – | – | – | – | –
2 | CC(C)=CC(=O)O[C@H]1Cc2cc3ccc(=O)oc3cc2OC1(C)C [decursin, reference compound] | did not significantly induce the apoptosis of the HUVECs even at high concentrations | – | – | – | – | – | – | – | – | – | – | – | 95.66 ± 10.80 % of control group | did not show significant effect on the level of VEGF | – | – | – | – | – | –
3 | Aflibercept [EYLEA™, reference compound] | – | – | – | – | – | – | – | – | – | – | – | – | – | – | – | 78.474 ± 8.452 % of control group | 70.022 ± 7.008 % of control group | 69.348 ± 5.013 % of control group | 74.154 ± 9.129 % of control group | 84.087 ± 9.079 % of control group
